Reference: PubChem BioAssay (NCI)
Where “and” joins values, the source holds several entries; their conditions need not be identical. Equal entries are not always repeated.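 Results reflect a 48-hour exposure of cells in 96-well plates to compound at five concentrations. GI50 = concentration required for 50% inhibition of growth. TGI is the concentration that stops growth completely.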

Columns and labels:
Test in all cases: growth of human tumour cells (NCI), 48 h
[1] = test system: MALME-3M melanoma
[2] = test system: OVCAR-5 ovarian
[3] = test system: SK-OV-3 ovarian
[4] = test system: PC-3 prostate
[5] = test system: CCRF-CEM leukemia
[6] = test system: K-562 leukemia
[7] = test system: 786-0 renal
[8] = test system: MCF7 breast
[9] = test system: COLO 205 colon
[10] = test system: OVCAR-8 ovarian

Cc1ccc(CN2CCC(C(=O)Nc3ccc(-c4cc5ccccc5[nH]4)cc3)CC2)o1
GI50 [1]: > 100 µM | TGI [1]: > 100 µM | GI50 [2]: > 100 µM | TGI [2]: > 100 µM | GI50 [3]: > 100 µM | TGI [3]: > 100 µM | GI50 [4]: > 100 µM | TGI [4]: > 100 µM | GI50 [5]: > 100 µM | TGI [5]: > 100 µM | GI50 [6]: > 100 µM | TGI [6]: > 100 µM | GI50 [7]: 98.9 µM | TGI [7]: > 100 µM | GI50 [8]: > 100 µM | TGI [8]: > 100 µM | GI50 [9]: 71 µM | TGI [9]: > 100 µM | GI50 [10]: > 100 µM | TGI [10]: > 100 µM

O=[N+]([O-])c1ccc2c(c1)/C(=N/N=C1c3ccccc3Cc3ccccc31)c1cc([N+](=O)[O-])cc([N+](=O)[O-])c1-2
TGI [1]: 6.46 µM | TGI [2]: 6 µM | TGI [3]: 27.3 µM | TGI [4]: 10.2 µM | TGI [5]: 5.55 µM | TGI [6]: 9.41 µM | TGI [7]: 3.41 µM | TGI [8]: 3.64 µM | TGI [9]: 9.9 µM | TGI [10]: 3.24 µM

COc1ccc(CC2c3cc4c(cc3CCN2C)OCO4)c(C=O)c1OC (stereo unspecified)
TGI [1]: > 100 µM | TGI [2]: > 100 µM | TGI [3]: > 100 µM | TGI [4]: > 100 µM | TGI [5]: > 100 µM | TGI [6]: > 100 µM | TGI [7]: > 100 µM | TGI [8]: > 100 µM | TGI [9]: > 100 µM | TGI [10]: > 100 µM

Nc1ccccc1C#C/C=C\C#Cc1ccccc1OC(F)(F)F
GI50 [1]: 11.4 µM | TGI [1]: 38.1 µM | GI50 [2]: 13 µM | TGI [2]: 44.1 µM | GI50 [3]: 7.12 µM | TGI [3]: 67.7 µM | GI50 [4]: 5.98 µM | TGI [4]: > 100 µM | GI50 [5]: 1.11 µM | TGI [5]: 23.2 µM | GI50 [6]: 2.31 µM | TGI [6]: > 100 µM | GI50 [7]: 5.48 µM | TGI [7]: 21 µM | GI50 [8]: 3.67 µM | TGI [8]: > 100 µM | GI50 [9]: 5.19 µM | TGI [9]: 28 µM | GI50 [10]: 6.7 µM | TGI [10]: 47.2 µM

O=C(Nc1ccccc1)c1c(O)[nH]c(=S)[nH]c1=O
GI50 [1]: 58.5 µM | TGI [1]: 96.6 µM and > 250 µM | GI50 [2]: 89.6 µM | TGI [2]: 110 µM and > 250 µM | TGI [3]: 122 µM | TGI [4]: 85.2 µM | GI50 [5]: 71.2 µM | TGI [5]: 83.3 µM and > 250 µM | GI50 [6]: 85.3 µM | TGI [6]: 114 µM and > 250 µM | TGI [7]: 92.1 µM | TGI [8]: 92.8 µM | GI50 [9]: 39.3 µM | TGI [9]: 64.1 µM and 105 µM | GI50 [10]: 41.3 µM | TGI [10]: 76.7 µM and > 250 µM

C=C(C)C(OC)C(O)CC1(C)CC(O)CC(C)(C2CCC3OC(C4(C)CCC(Br)C(C)(C)O4)CCC3(C)O2)O1 (stereo unspecified)
GI50 [1]: 14.9 µM | TGI [1]: 32.5 µM | GI50 [2]: 20.5 µM | TGI [2]: 38.7 µM | GI50 [3]: 22.8 µM | TGI [3]: 54.3 µM | GI50 [4]: 15.4 µM | TGI [4]: 32.4 µM | GI50 [5]: 21.3 µM | TGI [5]: 55.8 µM | GI50 [6]: 20.7 µM | TGI [6]: > 68.5 µM | GI50 [7]: 17.8 µM | TGI [7]: 33.6 µM | GI50 [8]: 19.9 µM | TGI [8]: 42.3 µM | GI50 [9]: 21.7 µM | TGI [9]: 45.5 µM | GI50 [10]: 21.1 µM | TGI [10]: 50.2 µM

CCOC(=O)Cn1c(C(F)(F)F)nc2nc(Cl)c(Cl)nc21
TGI [1]: > 100 µM | TGI [2]: > 100 µM | TGI [3]: > 100 µM | TGI [4]: > 100 µM | TGI [5]: > 69.5 µM | TGI [6]: > 100 µM | TGI [7]: > 100 µM | TGI [8]: > 87.4 µM | TGI [9]: > 100 µM | TGI [10]: > 100 µM

Fc1[nH]nc2ccc([C@@H]3Nc4ccc5[nH]ncc5c4[C@H]4C5CCC(C5)[C@@H]34)cc12 (stereo partly specified)
GI50 [1]: 11.6 µM | TGI [1]: 26 µM | GI50 [2]: 3.06 µM | TGI [2]: 14.6 µM | GI50 [3]: 1.88 µM | TGI [3]: 16.5 µM | GI50 [4]: 1.12 µM | TGI [4]: 13.6 µM | GI50 [5]: 0.514 µM | TGI [5]: 16.5 µM | GI50 [6]: 0.324 µM | TGI [6]: 13.9 µM | GI50 [7]: 2.82 µM | TGI [7]: 15.6 µM | GI50 [8]: 0.387 µM | TGI [8]: 12.6 µM | GI50 [9]: 0.801 µM | TGI [9]: 4.81 µM | GI50 [10]: 2.46 µM | TGI [10]: 16.4 µM
